pKi: −log10 of the molar value. In brackets after ≈: the same amount, converted by molar mass. Where two headings read alike, the source gives them in different places.
Experiments:
[1] = biological target: single-chain tethered dimer of HIV protease (Human immunodeficiency virus 1, UniProt P04585); experiment: biochemical; type: biochemical; parameters: fused on or other part: A second copy of the same protease unit is joined to the first by a short peptide tether, giving one polypeptide
[2] = system: HIV-1 (RF) in MT-2 cells; experiment: microbe, parasite or virus in culture; type: cell-based
How it was run: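 Read-out: gag and pol viral RNA captured by 5′-biotinylated oligonucleotides on streptavidin-coated wells, detected with alkaline phosphatase-linked reporter oligonucleotides, calibrated against BH10 in vitro transcripts. Virus stocks (RF, MN, IIIB) come from H9 cultures; MT-2 host cells kept in RPMI 1640, 5% FCS.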

[3] = Table 2d, HIV protease inhibition, HPLC method, read-out: HPLC K1
[4] = read-out: HPLC K1, Table 2d, class symbols
[5] = Human immunodeficiency virus 1, MT2, 48 h, Table 2d, class symbols, read-out: IC90

Row | Structure (SMILES) | pKi [1, 3] | IC90 ([2]; Table 2d, HIV RNA assay) | pKi [1, 4] | IC90 [2, 5] [µg/mL] | also measured
1 | O=C1N(Cc2cccc(CCO)c2)C(Cc2ccccc2)C(O)C(O)C(Cc2ccccc2)N1Cc1cccc(CCO)c1 (centres unmarked) [15DX] | > 8.00 | +++ (+++=<10 μg/mL) |  |  | 
2 | O=C1N(CCCCC(Br)CBr)C(Cc2ccccc2)C(O)C(O)C(Cc2ccccc2)N1CCCCC(Br)CBr (centres unmarked) [Example 13F] |  |  | 6.00 to 8.00 | > 100 | 
3 | CCOC(=O)c1cccc(CN2C(=O)N(CCCCCO)C(Cc3ccccc3)C(O)C(O)C2Cc2ccccc2)c1 (centres unmarked) [Example 15VY] |  |  | > 8.00 | < 10 | 
4 | NC(=O)c1cccc(CN2C(=O)N(Cc3cccc(C(N)=O)c3)C(Cc3ccc(F)c(F)c3)C(O)C(O)C2Cc2ccc(F)c(F)c2)c1 (centres unmarked) [20AC] |  |  |  |  | pKi ([1]; Table 2i, read-out: HPLC Ki): > 8.00; IC90 ([2]; Table 2i): +++ (+++=<10 μg/mL)
5 | CN(C)P1(=O)N(Cc2ccc(CO)cc2)[C@H](Cc2ccccc2)[C@H](O)[C@@H](O)[C@@H](Cc2ccccc2)N1Cc1ccc(CO)cc1 (some centres unmarked) [28I] |  |  |  |  | pKi ([1]; Table 2r, read-out: Ki HPLC): 6.00 to 8.00; IC90 ([2]; Table 2r): ++ (++=10 to 100 μg/mL)
6 | CN(C)Cc1nc(-c2cccc(CN3C(=O)N(Cc4cccc(-c5noc(CN(C)C)n5)c4)C(Cc4ccccc4)C(O)C(O)C3Cc3ccccc3)c2)no1.Cl.Cl (centres unmarked) [Example 15AO] | > 8.00 | +++ (+++=<10 μg/mL) |  |  | 
7 | N#Cc1cccc(CN2C(=O)N(Cc3cccc(C#N)c3)C(Cc3ccc(F)cc3)C(O)C(O)C2Cc2ccc(F)cc2)c1 (centres unmarked) [20O] |  |  |  |  | pKi ([1]; Table 2i, read-out: HPLC Ki): 6.00 to 8.00; IC90 ([2]; Table 2i): +++ (+++=<10 μg/mL)
8 | CC(C)(C)C(=O)c1cccc(CN2C(=O)N(Cc3cccc(C(=O)C(C)(C)C)c3)C(Cc3ccccc3)C(O)C(O)C2Cc2ccccc2)c1 (centres unmarked) [Example 15XH] |  |  |  |  | pKi ([1]; read-out: HPLC K1, Table 2d, HIV protease inhibition, HPLC method): > 8.00; IC90 ([2]; Human immunodeficiency virus 1, MT2, 48 h, Table 2d, HIV RNA assay, read-out: IC90): < 10 µg/mL
9 | CNc1n[nH]c2ccc(CN3C(=O)N(Cc4ccc5[nH]nc(NC)c5c4)C(Cc4ccccc4)C(O)C(O)C3Cc3ccccc3)cc12 (centres unmarked) [15DH] | > 8.00 | +++ (+++=<10 μg/mL) |  |  | 
10 | CC(=O)c1cccc(CN2C(Cc3ccccc3)C(O)C(O)C(Cc3ccccc3)N(Cc3cccc(C(C)=O)c3)S2(=O)=O)c1 (centres unmarked) [23T] |  |  |  |  | pKi ([1]; Table 2m, read-out: HPLC Ki): > 8.00; IC90 ([2]; Table 2m): +++ (+++=<10 μg/mL)
11 | NC(=NO)c1cc(CN2C(=O)N(Cc3ccc(F)c(C(N)=NO)c3)C(Cc3ccccc3)C(O)C(O)C2Cc2ccccc2)ccc1F (centres unmarked) [15EF] | > 8.00 | +++ (+++=<10 μg/mL) |  |  | 
12 | O=C(NCCN1CCOCC1)c1cccc(CN2C(=O)N(CC3CC3)C(Cc3ccccc3)C(O)C(O)C2Cc2ccccc2)c1 (centres unmarked) [15YB] | > 8.00 | +++ (+++=<10 μg/mL) |  |  | 
13 | O=C1N(Cc2cccc(O)c2)C(Cc2ccccc2)C(O)C(O)C(Cc2ccccc2)N1Cc1ccccn1 (centres unmarked) [10Q] |  |  | 6.00 to 8.00 | < 10 | 
14 | COc1cccc(CC2NC(=O)NC(Cc3cccc(OC)c3)C(O)C2O)c1 (centres unmarked) [20AO] |  |  |  |  | pKi ([1]; Table 2i, read-out: HPLC Ki): 6.00 to 8.00; IC90 ([2]; Table 2i): ++ (++=10 to 100 μg/mL)
15 | O=C1N(Cc2ccc3[nH]nnc3c2)C(Cc2ccccc2)C(O)C(O)C(Cc2ccccc2)N1CC1CC1 (centres unmarked) [15DP] | > 8.00 | +++ (+++=<10 μg/mL) |  |  | 
16 | O=C1NC(Cc2ccccc2)C(O)C(O)C(Cc2ccccc2)N1CCCCCCO (centres unmarked) [Example 12C] |  |  | > 8.00 | < 10 | 
17 | CNCC(=O)Nc1cccc(CN2C(=O)N(Cc3cccc(NC(=O)CNC)c3)C(Cc3ccccc3)C(O)C(O)C2Cc2ccccc2)c1.Cl.Cl (centres unmarked) [15O] |  |  |  |  | pKi ([1]; Table 2d, class symbols, read-out: HPLC K1): > 8.00; IC90 ([2]; Table 2d, class symbols): +++ (+++=<10 μg/mL)
18 | CNC(=O)NCCCCCN1C(=O)N(CCCCCNC(=O)NC)C(Cc2ccccc2)C(O)C(O)C1Cc1ccccc1 (centres unmarked) [15ES] | 6.00 to 8.00 | ++/+ (The ++/+ is used in the cases where an IC90 was determined to be >50 μg/mL) |  |  | 
19 | CCC(=O)CN1C(=O)N(CC(=O)CC)C(Cc2ccccc2)C(O)C(O)C1Cc1ccccc1 (centres unmarked) [Example 15VO] |  |  | 6.00 to 8.00 | > 50 | 
20 | Oc1ccc(CN2C(=S)N(Cc3ccc(O)cc3)C(Cc3ccccc3)C(O)C(O)C2Cc2ccccc2)cc1 (centres unmarked) [Example 27F] |  |  |  |  | pKi ([1]; Table 2q, read-out: HPLC Ki): > 8.00; IC90 ([2]; Table 2q): +++ (+++=<10 μg/mL)
21 | O=C1N(CCCCO)C(Cc2ccccc2)C(O)C(O)C(Cc2ccccc2)N1CCCCO (centres unmarked) [Example 12F] |  |  | 6.00 to 8.00 | 10 to 100 (≈ 21.2 to 212 µM) | 
22 | CC(=O)Oc1cccc(CN2C(=O)N(Cc3cccc(OC(C)=O)c3)C(Cc3ccccc3)C(O)C(O)C2Cc2ccccc2)c1 (centres unmarked) [10F] |  |  | 6.00 to 8.00 | < 10 | 
23 | O=P1(Oc2ccccc2)N(Cc2cccc(CO)c2)[C@H](Cc2ccccc2)[C@H](O)[C@@H](O)[C@@H](Cc2ccccc2)N1Cc1cccc(CO)c1 (some centres unmarked) [28J] |  |  |  |  | pKi ([1]; Table 2r, read-out: Ki HPLC): 6.00 to 8.00; IC90 ([2]; Table 2r): ++ (++=10 to 100 μg/mL)
24 | NCC(=O)Nc1cccc(CN2C(=O)N(Cc3cccc(NC(=O)CN)c3)C(Cc3ccccc3)C(O)C(O)C2Cc2ccccc2)c1 (centres unmarked) [15R] |  |  | > 8.00 | < 10 | 
25 | O=C(NCCCCCN1C(=O)N(CCCCCNC(=O)Nc2ccccc2)C(Cc2ccccc2)C(O)C(O)C1Cc1ccccc1)Nc1ccccc1 (centres unmarked) [15ER] | 6.00 to 8.00 | ++/+ (The ++/+ is used in the cases where an IC90 was determined to be >50 μg/mL) |  |  | 
